System: OVCAR-5 complex spheroids with HUVEC/MSC, viability, % test/control
Experiment: Anticancer human tumor OVCAR-5 cell line growth inhibition [AhR];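 also: spheroids exposed to compounds for 7 days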;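 as to viability, T/C: 100% = DMSO vehicle control wells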
Conditions: for IC50: curve of first compound; for viability, T/C: stronger effect = lower value
Excerpt: Multicellular complex tumor spheroid response to aryl hydrocarbon receptor antagonists in combination with a variety of drugs and investigational agents in selected tumor cell lines
The current study was undertaken to assess response to aryl hydrocarbon receptor antagonists in combination with standard-of-care drugs and investigational agents in solid tumor complex spheroid models. Complex spheroids include a stromal component modeled by human endothelial cells (HUVEC) and fibroblasts modeled by human mesenchymal stem cells (MSCs). The concentration ranges selected for each drug and investigational agent were based upon clinically achievable concentrations if the clinical Cmax of the agent was known.
Compounds. The drugs and investigational agents: BAY 2416964 (NSC825713), GNF351 (NSC835774), CH-223191 (NSC835775), CPI-455 (NSC825282), aza-TdCyd (NSC777586), decitabine (NSC127716), belinostat (NSC758774), entinostat (NSC756642), pevonedistat (NSC761192), tazemetostat (NSC777109), talazoparib (NSC765396), olaparib (NSC753686), selinexor (NSC780203), nedisertib (M3814, NSC802822), bortezomib (NSC756655), venetoclax (NSC766270), doxorubicin (NSC123127), elimusertib (BAY189344, NSC800525), ceralasertib (AZD6738, NSC777638), TAK-243 (NSC785004), alisertib (NSC759677), etoposide (NSC141540), topotecan (NSC609699), eribulin (NSC707389), gemcitabine (NSC613327), carboplatin (NSC241240), cisplatin (NSC119875), and SN-38 (NSC673596) were obtained from the National Cancer Institute (NCI) Developmental Therapeutics Program Chemical Repository (32). The FDA-approved anticancer drug set is available from the Developmental Therapeutics Program at https://dtp.cancer.gov/organization/dscb/obtaining/available plates.htm. […] The stock solutions were prepared in dimethyl sulfoxide (DMSO, Sigma-Aldrich, St. Louis, MO, cat. D2650), except for the platinum compounds which were prepared in saline (Quality Biological, Gaithersburg, MD, cat. 114-055-101), at 800-fold the tested concentration and stored at -70 degrees C prior to their use. All drugs and investigational agents were tested over a range starting from a high concentration at or near the clinical Cmax and decreasing in half-log increments. If the clinical Cmax for an agent had not been determined, the highest concentration tested was 10 microM (Table 1).
Cell Culture. All cells were maintained in an incubator at 37 degrees C and 5% CO2 with 95% humidity. The PDC lines were cultured according to standard operating procedures established by the NCI PDMR (https://pdmr.cancer.gov). Briefly, all PDCs were thawed and cultured in Matrigel-coated flasks prepared with a working solution of 1X Ham's F-12 nutrient mix, without supplementation (Invitrogen, Waltham, MA, cat. 11765054), 100 U/mL penicillin-streptomycin (Invitrogen, cat. 15140122), and 2.5% Matrigel (Corning Inc., Corning, NY, cat. 354248) for the first three passages. All PDCs were cultured in complete DMEM/F-12 media containing advanced DMEM/F-12 (Invitrogen, cat. 12634028), 4.9% defined fetal bovine serum, heat inactivated (HyClone Laboratories Inc., Logan, UT, cat. SH30070.03HI), 389 ng/mL hydrocortisone (Sigma-Aldrich, cat. H4001), 9.7 ng/mL human EGF recombinant protein (Invitrogen, cat. PHG0313), 23.4 microg/mL adenine (Sigma-Aldrich, cat. A2786), 97.3 U/mL penicillin-streptomycin (Invitrogen, cat. 15140122), 1.9 mM L-glutamine (Invitrogen, cat. 25030081), and 9.7 microM Y-27632 dihydrochloride (Tocris Bioscience, Bristol, United Kingdom, cat. 1254). The PDCs were cultured in complete DMEM/F12 media without 10 microM Y-27632 dihydrochloride for at least two passages prior to the screen. The established cell lines NCI-H1341 and […] were cultured in DMEM/F-12, HEPES (Invitrogen, cat. 11330032), 5% defined fetal bovine serum (HyClone Laboratories Inc., cat. SH30070.03), ITS premix universal culture supplement [insulin (5 microg/mL), transferrin (5 microg/mL), and selenious acid (5 ng/mL)] […]

[1] = second compound 0.1 µM, first compound 0.0316 µM
[2] = second compound 0.1 µM, first compound 0.1 µM
[3] = second compound 0.1 µM, first compound 0.316 µM
[4] = second compound 0.1 µM, first compound 1 µM
[5] = second compound 0.316 µM, first compound 0.0316 µM
[6] = second compound 0.316 µM, first compound 0.1 µM
[7] = second compound 0.316 µM, first compound 0.316 µM
[8] = second compound 0.316 µM, first compound 1 µM
[9] = second compound 1 µM, first compound 0.0316 µM
[10] = second compound 1 µM, first compound 0.1 µM
[11] = second compound 1 µM, first compound 0.316 µM
[12] = second compound 1 µM, first compound 1 µM
[13] = second compound 3.16 µM, first compound 0.0316 µM
[14] = second compound 3.16 µM, first compound 0.1 µM
[15] = second compound 3.16 µM, first compound 0.316 µM
[16] = second compound 3.16 µM, first compound 1 µM
[17] = second compound 10 µM, first compound 0.0316 µM
[18] = second compound 10 µM, first compound 0.1 µM
[19] = second compound 10 µM, first compound 0.316 µM
[20] = second compound 10 µM, first compound 1 µM

## Nc1ncn(C2CC(O)C(CO)O2)c(=O)n1 (stereo not given) + Cc1cncc(-c2nc(NCCc3c[nH]c4ccccc34)c3ncn(C(C)C)c3n2)c1
Second compound 0.1 µM
  IC50: > 1000 nM
Second compound 0.316 µM
  IC50: > 1000 nM
Second compound 1 µM
  IC50: > 1000 nM
Second compound 3.16 µM
  IC50: > 1000 nM
Second compound 10 µM
  IC50: < 3.16 nM
Second compound 0.1 µM, first compound 0.00316 µM
  viability, T/C: 98.3%
Second compound 0.1 µM, first compound 0.01 µM
  viability, T/C: 94.2%
[1]
  viability, T/C: 87.6%
[2]
  viability, T/C: 80.7%
[3]
  viability, T/C: 69%
[4]
  viability, T/C: 62.7%
Second compound 0.316 µM, first compound 0.00316 µM
  viability, T/C: 93.8%
Second compound 0.316 µM, first compound 0.01 µM
  viability, T/C: 91.7%
[5]
  viability, T/C: 90%
[6]
  viability, T/C: 74.8%
[7]
  viability, T/C: 65.5%
[8]
  viability, T/C: 59%
Second compound 1 µM, first compound 0.00316 µM
  viability, T/C: 96.2%
Second compound 1 µM, first compound 0.01 µM
  viability, T/C: 85.5%
[9]
  viability, T/C: 85.4%
[10]
  viability, T/C: 78.3%
[11]
  viability, T/C: 61.5%
[12]
  viability, T/C: 61.8%
Second compound 3.16 µM, first compound 0.00316 µM
  viability, T/C: 79.8%
Second compound 3.16 µM, first compound 0.01 µM
  viability, T/C: 77.8%
[13]
  viability, T/C: 70.4%
[14]
  viability, T/C: 64%
[15]
  viability, T/C: 59.8%
[16]
  viability, T/C: 51.2%
Second compound 10 µM, first compound 0.00316 µM
  viability, T/C: 10.4%
Second compound 10 µM, first compound 0.01 µM
  viability, T/C: 10.1%
[17]
  viability, T/C: 8.47%
[18]
  viability, T/C: 8.64%
[19]
  viability, T/C: 8.49%
[20]
  viability, T/C: 11.6%

## CC(C)CC(NC(=O)C(Cc1ccccc1)NC(=O)c1cnccn1)B(O)O (stereo not given) + CC(CO)NC(=O)c1cc(-c2ccc(Cl)cc2)nn(-c2cnn(C)c2)c1=O
Second compound 0.1 µM
  IC50: 23.3 nM
Second compound 0.316 µM
  IC50: 23.8 nM
Second compound 1 µM
  IC50: 24.2 nM
Second compound 3.16 µM
  IC50: 22.1 nM
Second compound 10 µM
  IC50: 20.3 nM
Second compound 0.1 µM, first compound 0.000949 µM
  viability, T/C: 101%
Second compound 0.1 µM, first compound 0.003 µM
  viability, T/C: 111%
Second compound 0.1 µM, first compound 0.00949 µM
  viability, T/C: 90.8%
Second compound 0.1 µM, first compound 0.03 µM
  viability, T/C: 38.2%
Second compound 0.1 µM, first compound 0.0949 µM
  viability, T/C: 18.2%
Second compound 0.1 µM, first compound 0.3 µM
  viability, T/C: 11%
Second compound 0.316 µM, first compound 0.000949 µM
  viability, T/C: 104%
Second compound 0.316 µM, first compound 0.003 µM
  viability, T/C: 112%
Second compound 0.316 µM, first compound 0.00949 µM
  viability, T/C: 89.6%
Second compound 0.316 µM, first compound 0.03 µM
  viability, T/C: 39.1%
Second compound 0.316 µM, first compound 0.0949 µM
  viability, T/C: 20%
Second compound 0.316 µM, first compound 0.3 µM
  viability, T/C: 8.57%
Second compound 1 µM, first compound 0.000949 µM
  viability, T/C: 107%
Second compound 1 µM, first compound 0.003 µM
  viability, T/C: 111%
Second compound 1 µM, first compound 0.00949 µM
  viability, T/C: 95%
Second compound 1 µM, first compound 0.03 µM
  viability, T/C: 39.1%
Second compound 1 µM, first compound 0.0949 µM
  viability, T/C: 20.5%
Second compound 1 µM, first compound 0.3 µM
  viability, T/C: 11.5%
Second compound 3.16 µM, first compound 0.000949 µM
  viability, T/C: 96%
Second compound 3.16 µM, first compound 0.003 µM
  viability, T/C: 105%
Second compound 3.16 µM, first compound 0.00949 µM
  viability, T/C: 87.3%
Second compound 3.16 µM, first compound 0.03 µM
  viability, T/C: 36%
Second compound 3.16 µM, first compound 0.0949 µM
  viability, T/C: 20%
Second compound 3.16 µM, first compound 0.3 µM
  viability, T/C: 12.4%
Second compound 10 µM, first compound 0.000949 µM
  viability, T/C: 88.3%
Second compound 10 µM, first compound 0.003 µM
  viability, T/C: 97.7%
Second compound 10 µM, first compound 0.00949 µM
  viability, T/C: 79.4%
Second compound 10 µM, first compound 0.03 µM
  viability, T/C: 34.4%
Second compound 10 µM, first compound 0.0949 µM
  viability, T/C: 22.4%
Second compound 10 µM, first compound 0.3 µM
  viability, T/C: 13.7%

## O=C(c1cc(Cc2n[nH]c(=O)c3ccccc23)ccc1F)N1CCN(C(=O)C2CC2)CC1 + Cc1ccccc1N=Nc1ccc(NC(=O)c2ccnn2C)c(C)c1
Second compound 0.1 µM
  IC50: > 10000 nM
Second compound 0.316 µM
  IC50: > 10000 nM
Second compound 1 µM
  IC50: > 10000 nM
Second compound 3.16 µM
  IC50: > 10000 nM
Second compound 10 µM
  IC50: > 10000 nM
[1]
  viability, T/C: 103%
[2]
  viability, T/C: 105%
[3]
  viability, T/C: 102%
[4]
  viability, T/C: 99.8%
Second compound 0.1 µM, first compound 3.16 µM
  viability, T/C: 92.5%
Second compound 0.1 µM, first compound 10 µM
  viability, T/C: 85%
[5]
  viability, T/C: 107%
[6]
  viability, T/C: 109%
[7]
  viability, T/C: 105%
[8]
  viability, T/C: 104%
Second compound 0.316 µM, first compound 3.16 µM
  viability, T/C: 98.3%
Second compound 0.316 µM, first compound 10 µM
  viability, T/C: 90.6%
[9]
  viability, T/C: 111%
[10]
  viability, T/C: 114%
[11]
  viability, T/C: 115%
[12]
  viability, T/C: 109%
Second compound 1 µM, first compound 3.16 µM
  viability, T/C: 101%
Second compound 1 µM, first compound 10 µM
  viability, T/C: 94.2%
[13]
  viability, T/C: 111%
[14]
  viability, T/C: 115%
[15]
  viability, T/C: 114%
[16]
  viability, T/C: 106%
Second compound 3.16 µM, first compound 3.16 µM
  viability, T/C: 107%
Second compound 3.16 µM, first compound 10 µM
  viability, T/C: 99.4%
[17]
  viability, T/C: 99.3%
[18]
  viability, T/C: 110%
[19]
  viability, T/C: 103%
[20]
  viability, T/C: 106%
Second compound 10 µM, first compound 3.16 µM
  viability, T/C: 96.7%
Second compound 10 µM, first compound 10 µM
  viability, T/C: 89.1%

Source: PubChem BioAssay AID1919015 (Molecular Pharmacology Branch, DTP, NCI, 2023)
